Test results taken from PubChem BioAssay (NCI).
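The compound was tested at five concentrations on cells cultured in 96-well plates, with a 48-hour exposure period. TGI: concentration producing complete growth inhibition.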

Key:
Test in all cases: NCI tumour cell line growth inhibition, 48 h
M14 melanoma = test system: M14 melanoma
NCI-H226 lung = test system: NCI-H226 lung
MCF7 breast = test system: MCF7 breast
MDA-MB-231 breast = test system: MDA-MB-231 breast
EKVX NSCLC = test system: EKVX NSCLC
OVCAR-3 ovarian = test system: OVCAR-3 ovarian
HOP-62 NSCLC = test system: HOP-62 NSCLC
SK-MEL-2 melanoma = test system: SK-MEL-2 melanoma
786-0 renal = test system: 786-0 renal
MDA-MB-435 = test system: MDA-MB-435
HS 578T breast = test system: HS 578T breast
SN12C renal = test system: SN12C renal
NCI/ADR-RES ovarian = test system: NCI/ADR-RES ovarian
HCT-116 colon = test system: HCT-116 colon
TK-10 renal = test system: TK-10 renal
RPMI-8226 leukemia = test system: RPMI-8226 leukemia
SNB-19 CNS = test system: SNB-19 CNS
A498 renal = test system: A498 renal
SF-295 CNS = test system: SF-295 CNS
IGROV1 ovarian = test system: IGROV1 ovarian
COLO 205 colon = test system: COLO 205 colon
HOP-92 NSCLC = test system: HOP-92 NSCLC
SNB-75 CNS = test system: SNB-75 CNS
NCI-H23 lung = test system: NCI-H23 lung
UACC-257 melanoma = test system: UACC-257 melanoma
SF-268 CNS = test system: SF-268 CNS
A549 NSCLC = test system: A549 NSCLC
T-47D breast = test system: T-47D breast
HCC-2998 colon = test system: HCC-2998 colon
ACHN renal = test system: ACHN renal
SK-MEL-28 melanoma = test system: SK-MEL-28 melanoma
OVCAR-5 ovarian = test system: OVCAR-5 ovarian
SW-620 colon = test system: SW-620 colon
SK-MEL-5 melanoma = test system: SK-MEL-5 melanoma
HCT-15 colon = test system: HCT-15 colon
SK-OV-3 ovarian = test system: SK-OV-3 ovarian
KM12 colon = test system: KM12 colon
OVCAR-4 ovarian = test system: OVCAR-4 ovarian
UO-31 renal = test system: UO-31 renal
UACC-62 melanoma = test system: UACC-62 melanoma
MDA-N = test system: MDA-N
OVCAR-8 ovarian = test system: OVCAR-8 ovarian
HT29 colon = test system: HT29 colon
SF-539 CNS = test system: SF-539 CNS
MOLT-4 leukemia = test system: MOLT-4 leukemia
U251 CNS = test system: U251 CNS
DU-145 prostate = test system: DU-145 prostate
RXF 393 renal = test system: RXF 393 renal
NCI-H460 lung = test system: NCI-H460 lung
CAKI-1 renal = test system: CAKI-1 renal
BT-549 breast = test system: BT-549 breast
K-562 leukemia = test system: K-562 leukemia
PC-3 prostate = test system: PC-3 prostate
LOX IMVI melanoma = test system: LOX IMVI melanoma
NCI-H522 lung = test system: NCI-H522 lung
MALME-3M melanoma = test system: MALME-3M melanoma

SMILES: O=c1cc(-c2ccncc2)[nH]c2cc3c(cc12)OCO3
- TGI (M14 melanoma): > 100 µM
- TGI (NCI-H226 lung): > 100 µM
- TGI (MCF7 breast): > 100 µM
- TGI (MDA-MB-231 breast): > 100 µM
- TGI (EKVX NSCLC): > 100 µM
- TGI (OVCAR-3 ovarian): > 100 µM
- TGI (HOP-62 NSCLC): > 100 µM
- TGI (SK-MEL-2 melanoma): > 100 µM
- TGI (786-0 renal): > 100 µM
- TGI (MDA-MB-435): > 100 µM
- TGI (HS 578T breast): > 100 µM
- TGI (SN12C renal): > 100 µM
- TGI (NCI/ADR-RES ovarian): > 100 µM
- TGI (HCT-116 colon): > 100 µM
- TGI (TK-10 renal): > 100 µM
- TGI (RPMI-8226 leukemia): > 100 µM
- TGI (SNB-19 CNS): > 100 µM
- TGI (A498 renal): > 100 µM
- TGI (SF-295 CNS): > 100 µM
- TGI (IGROV1 ovarian): > 100 µM
- TGI (COLO 205 colon): > 100 µM
- TGI (HOP-92 NSCLC): > 100 µM
- TGI (SNB-75 CNS): > 100 µM
- TGI (NCI-H23 lung): > 100 µM
- TGI (UACC-257 melanoma): > 100 µM
- TGI (SF-268 CNS): > 100 µM
- TGI (A549 NSCLC): > 100 µM
- TGI (T-47D breast): > 100 µM
- TGI (HCC-2998 colon): > 100 µM
- TGI (ACHN renal): > 100 µM
- TGI (SK-MEL-28 melanoma): > 100 µM
- TGI (OVCAR-5 ovarian): > 100 µM
- TGI (SW-620 colon): > 100 µM
- TGI (SK-MEL-5 melanoma): > 100 µM
- TGI (HCT-15 colon): > 100 µM
- TGI (SK-OV-3 ovarian): > 100 µM
- TGI (KM12 colon): > 100 µM
- TGI (OVCAR-4 ovarian): > 100 µM
- TGI (UO-31 renal): > 100 µM
- TGI (UACC-62 melanoma): > 100 µM
- TGI (MDA-N): > 100 µM
- TGI (OVCAR-8 ovarian): > 100 µM
- TGI (HT29 colon): > 100 µM
- TGI (SF-539 CNS): > 100 µM
- TGI (MOLT-4 leukemia): > 100 µM
- TGI (U251 CNS): > 100 µM
- TGI (DU-145 prostate): > 100 µM
- TGI (RXF 393 renal): > 100 µM
- TGI (NCI-H460 lung): > 100 µM

SMILES: S=C(N/N=C\C(=N/NC(=S)N1CCCCC1)c1ccccc1)N1CCCCC1
- TGI (M14 melanoma): 3.61 µM
- TGI (NCI-H226 lung): 3.38 µM
- TGI (MCF7 breast): > 22.4 µM
- TGI (EKVX NSCLC): 3.31 µM
- TGI (OVCAR-3 ovarian): 3.68 µM
- TGI (HOP-62 NSCLC): 5.83 µM
- TGI (786-0 renal): 3.74 µM
- TGI (MDA-MB-435): 3.68 µM
- TGI (HS 578T breast): 5.23 µM
- TGI (SN12C renal): 3.51 µM
- TGI (NCI/ADR-RES ovarian): 7.87 µM
- TGI (CAKI-1 renal): 4.66 µM
- TGI (BT-549 breast): 3.57 µM
- TGI (HCT-116 colon): 6.53 µM
- TGI (TK-10 renal): 3.25 µM
- TGI (RPMI-8226 leukemia): > 100 µM
- TGI (SNB-19 CNS): 3.84 µM
- TGI (A498 renal): 3.18 µM
- TGI (SF-295 CNS): 3.91 µM
- TGI (IGROV1 ovarian): 3.45 µM
- TGI (K-562 leukemia): > 100 µM
- TGI (COLO 205 colon): 3.86 µM
- TGI (HOP-92 NSCLC): 3.88 µM
- TGI (SNB-75 CNS): 3.72 µM
- TGI (UACC-257 melanoma): 5.01 µM
- TGI (SF-268 CNS): 3.72 µM
- TGI (A549 NSCLC): 5.62 µM
- TGI (T-47D breast): 6.72 µM
- TGI (HCC-2998 colon): 3.9 µM
- TGI (ACHN renal): 3.11 µM
- TGI (SK-MEL-28 melanoma): 3.65 µM
- TGI (PC-3 prostate): 4.06 µM
- TGI (OVCAR-5 ovarian): 3.33 µM
- TGI (SW-620 colon): 3.83 µM
- TGI (SK-MEL-5 melanoma): 3.32 µM
- TGI (HCT-15 colon): 5.1 µM
- TGI (SK-OV-3 ovarian): 3.37 µM
- TGI (KM12 colon): 3.98 µM
- TGI (OVCAR-4 ovarian): 3.43 µM
- TGI (LOX IMVI melanoma): > 100 µM
- TGI (UO-31 renal): 3.39 µM
- TGI (UACC-62 melanoma): 4.1 µM
- TGI (MDA-N): > 100 µM
- TGI (HT29 colon): 4.61 µM
- TGI (SF-539 CNS): 6.7 µM
- TGI (U251 CNS): 3.56 µM
- TGI (NCI-H522 lung): 3.77 µM
- TGI (DU-145 prostate): 3.02 µM
- TGI (RXF 393 renal): 3.33 µM
- TGI (MALME-3M melanoma): 3.57 µM
- TGI (NCI-H460 lung): 4.86 µM
